Assay results from PubChem BioAssay AID330 (DTP/NCI, 2004).
Several values for one entry are separate records, joined by “and”; a condition that tells them apart may be missing. Identical values can stand only once. Toxic doses and inconclusive results are not listed. How the source made its calls: active means survival T/C of 150% or more; inactive means T/C below 125% in these data.

Tested on: P388 leukemia ip, CD2F1 mice, survival T/C
Experiment: NCI In Vivo Anticancer Drug Screen. Data for tumor model P388 Leukemia (intraperitoneal) in CD2F1 (CDF1) mice
Conditions: endpoint: median survival time, higher = longer survival
Outline: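 Mice carrying the transplanted tumor received test compound or vehicle. Survival was recorded in each group, and the value is the treated-group measurement divided by that of the vehicle-treated control group.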

[1] = dose: 25.0 mg/kg/injection, schedule: Q01DX009 (ip), vehicle: saline
[2] = dose: 50.0 mg/kg/injection, schedule: Q01DX009 (ip), vehicle: saline
[3] = dose: 100.0 mg/kg/injection, schedule: Q01DX009 (ip), vehicle: Klucel (hydroxypropylcellulose) (HPC)
[4] = dose: 25.0 mg/kg/injection, schedule: Q01DX009 (ip), vehicle: saline with Tween-80
[5] = dose: 50.0 mg/kg/injection, schedule: Q01DX009 (ip), vehicle: saline with Tween-80
[6] = dose: 100.0 mg/kg/injection, schedule: Q01DX009 (ip), vehicle: saline with Tween-80
[7] = dose: 12.5 mg/kg/injection, schedule: Q01DX009 (ip), vehicle: saline with Tween-80
[8] = dose: 100.0 mg/kg/injection, schedule: Q04DX003 (ip), vehicle: Klucel (hydroxypropylcellulose) (HPC)
[9] = dose: 200.0 mg/kg/injection, schedule: Q04DX003 (ip), vehicle: Klucel (hydroxypropylcellulose) (HPC)
[10] = dose: 200.0 mg/kg/injection, schedule: Q01DX009 (ip), vehicle: saline with Tween-80
[11] = dose: 60.0 mg/kg/injection, schedule: Q01DX005 (ip), vehicle: Klucel (hydroxypropylcellulose) (HPC)
[12] = dose: 120.0 mg/kg/injection, schedule: Q01DX005 (ip), vehicle: Klucel (hydroxypropylcellulose) (HPC)

Measured: T/C

CC1COS(=O)(=O)C1 (stereo not given)
inactive: [1] 102 % of control | [2] 101 % of control

CN(C)N=Nc1cccc(C(N)=O)c1
inactive: dose: 6.25 mg/kg/injection, schedule: Q01DX009 (ip), vehicle: Klucel (hydroxypropylcellulose) (HPC) 100 % of control | dose: 12.5 mg/kg/injection, schedule: Q01DX009 (ip), vehicle: Klucel (hydroxypropylcellulose) (HPC) 110 % of control | dose: 25.0 mg/kg/injection, schedule: Q01DX009 (ip), vehicle: Klucel (hydroxypropylcellulose) (HPC) 116 % of control | dose: 50.0 mg/kg/injection, schedule: Q01DX009 (ip), vehicle: Klucel (hydroxypropylcellulose) (HPC) 112 % of control | [3] 93 % of control

Cc1cc(NCCCN(C)C)c2ccc3cc(NCCCN(C)C)c(C)nc3c2n1
inactive: [4] 96 % of control | [5] 104 % of control | [6] 102 % of control

CC1Cc2c([nH]c3ccc(Cl)cc23)CN1 (stereo not given)
inactive: dose: 3.12 mg/kg/injection, schedule: Q01DX009 (ip), vehicle: saline with Tween-80 106 % of control | dose: 6.25 mg/kg/injection, schedule: Q01DX009 (ip), vehicle: saline with Tween-80 100 % of control | [7] 101 % of control | [4] 101 % of control

O=C(CC(NC(=O)OCc1ccccc1)C(=O)O)OCc1ccccc1 (stereo not given)
inactive: dose: 100.0 mg/kg/injection, schedule: Q04DX003 (ip), vehicle: saline sonified 110 % of control | dose: 200.0 mg/kg/injection, schedule: Q04DX003 (ip), vehicle: saline sonified 105 % of control

Cc1cc2ccc(OC(=O)c3ccc(N=C(N)N)cc3)cc2oc1=O
inactive: dose: 100.0 mg/kg/injection, schedule: Q04DX003 (ip), vehicle: saline with Tween-80 100 % of control | dose: 200.0 mg/kg/injection, schedule: Q04DX003 (ip), vehicle: saline with Tween-80 91 % of control | dose: 400.0 mg/kg/injection, schedule: Q04DX003 (ip), vehicle: saline with Tween-80 87 % of control

O=C(S)CC(O)(c1ccccc1)c1ccccc1
inactive: [8] 105 % of control | [9] 105 % of control | dose: 400.0 mg/kg/injection, schedule: Q04DX003 (ip), vehicle: Klucel (hydroxypropylcellulose) (HPC) 101 % of control

C[CH2][Sn]([CH2]C)[S]CC(N)C(=O)O (stereo not given)
inactive: dose: 3.75 mg/kg/injection, schedule: Q01DX005 (ip), vehicle: Klucel (hydroxypropylcellulose) (HPC) 110 % of control | dose: 7.5 mg/kg/injection, schedule: Q01DX005 (ip), vehicle: Klucel (hydroxypropylcellulose) (HPC) 120 % of control

O=C(c1ccccc1)N1OC2C=CC1C2 (stereo not given)
inactive: [7] 100 % of control | [4] 89 % of control | [5] 100 % of control and 103 % of control

COc1ccc(CC2(C(=O)O)NCCS2)cc1OC (stereo not given)
inactive: [8] 101 % of control | [9] 98 % of control

CP1(=S)CC[C@H]2C3=C(CC[C@@H]21)CC(=O)CC3 (stereo not given in full)
inactive: dose: 50.0 mg/kg/injection, schedule: Q01DX005 (ip), vehicle: saline + Tween-80 + alcohol 106 % of control | dose: 100.0 mg/kg/injection, schedule: Q01DX005 (ip), vehicle: saline + Tween-80 + alcohol 103 % of control | dose: 200.0 mg/kg/injection, schedule: Q01DX005 (ip), vehicle: saline + Tween-80 + alcohol 97 % of control

CCCCCCCCCC[N+](C)(C)CCCO
inactive: dose: 12.5 mg/kg/injection, schedule: Q01DX009 (ip), vehicle: saline 96 % of control | [1] 112 % of control | [2] 118 % of control

CC1C2c3ccccc3C(c3ccccc32)C1CN1C(CCO)COC1c1ccccc1 (stereo not given)
inactive: dose: 60.0 mg/kg/injection, schedule: Q01DX005 (ip), vehicle: saline with Tween-80 92 % of control | dose: 120.0 mg/kg/injection, schedule: Q01DX005 (ip), vehicle: saline with Tween-80 87 % of control | dose: 240.0 mg/kg/injection, schedule: Q01DX005 (ip), vehicle: saline with Tween-80 90 % of control

CC(=O)c1ccc(-c2ccc(C(C)=O)cc2)cc1
inactive: [5] 96 % of control | [6] 100 % of control | [10] 87 % of control | dose: 400.0 mg/kg/injection, schedule: Q01DX009 (ip), vehicle: saline with Tween-80 87 % of control

CC(=O)c1ccc(C)cc1C
inactive: [4] 98 % of control | [5] 98 % of control | [6] 104 % of control and 110 % of control | [10] 118 % of control

CS/C(=C/c1ccc2ccccc2[n+]1C)N1CCOCC1
inactive: dose: 6.25 mg/kg/injection, schedule: Q01DX005 (ip), vehicle: saline with Tween-80 105 % of control and 107 % of control and 108 % of control | dose: 12.5 mg/kg/injection, schedule: Q01DX005 (ip), vehicle: saline with Tween-80 103 % of control and 105 % of control and 119 % of control | dose: 25.0 mg/kg/injection, schedule: Q01DX005 (ip), vehicle: saline with Tween-80 110 % of control (2×) and 121 % of control

O=C(/C=C/c1ccc(Cl)cc1)c1ccccc1O
inactive: [4] 98 % of control | [5] 103 % of control | [6] 107 % of control | [10] 100 % of control

Cc1ccc(S(=O)(=O)NCCSSCCNS(=O)(=O)c2ccc(C)cc2)cc1
inactive: dose: 50.0 mg/kg/injection, schedule: Q01DX005 (ip), vehicle: Klucel (hydroxypropylcellulose) (HPC) 103 % of control | dose: 100.0 mg/kg/injection, schedule: Q01DX005 (ip), vehicle: Klucel (hydroxypropylcellulose) (HPC) 106 % of control | dose: 200.0 mg/kg/injection, schedule: Q01DX005 (ip), vehicle: Klucel (hydroxypropylcellulose) (HPC) 103 % of control

CC(C)C(=O)N1CCCCCN1C(=O)C(C)C
inactive: dose: 100.0 mg/kg/injection, schedule: Q01DX001 (ip), vehicle: suspension in saline 100 % of control | dose: 200.0 mg/kg/injection, schedule: Q01DX001 (ip), vehicle: suspension in saline 95 % of control | dose: 400.0 mg/kg/injection, schedule: Q01DX001 (ip), vehicle: suspension in saline 94 % of control

CN(CN(C)N=Nc1ccc(Br)cc1)CN(C)N=Nc1ccc(Br)cc1
inactive: [11] 100 % of control | [12] 92 % of control

CCCCNc1ccc(-c2c(N)nc(N)nc2CC)cc1N
inactive: dose: 100.0 mg/kg/injection, schedule: Q01DX001 (ip), vehicle: Klucel (hydroxypropylcellulose) (HPC) 101 % of control | dose: 200.0 mg/kg/injection, schedule: Q01DX001 (ip), vehicle: Klucel (hydroxypropylcellulose) (HPC) 93 % of control | dose: 400.0 mg/kg/injection, schedule: Q01DX001 (ip), vehicle: Klucel (hydroxypropylcellulose) (HPC) 94 % of control

CCOC(=O)c1cc(=O)c2c(OC)ccc(Cl)c2[nH]1
inactive: [11] 100 % of control | [12] 99 % of control | dose: 240.0 mg/kg/injection, schedule: Q01DX005 (ip), vehicle: Klucel (hydroxypropylcellulose) (HPC) 96 % of control

Clc1ccc(OCC(Cn2ccnc2)c2ccc(Cl)cc2)cc1 (stereo not given)
inactive: [5] 100 % of control | [6] 100 % of control

CCOC(=O)C(=O)c1ccc(N(C)C)cc1
inactive: [3] 107 % of control | dose: 200.0 mg/kg/injection, schedule: Q01DX009 (ip), vehicle: Klucel (hydroxypropylcellulose) (HPC) 100 % of control | dose: 400.0 mg/kg/injection, schedule: Q01DX009 (ip), vehicle: Klucel (hydroxypropylcellulose) (HPC) 97 % of control

CC(C(=O)O)c1ccc2c(c1)Cc1ccccc1-2 (stereo not given)
inactive: [7] 108 % of control | [4] 106 % of control | [5] 105 % of control and 86 % of control

Oc1cccc2ccccc12
inactive: dose: 25.0 mg/kg/injection, schedule: Q01DX005 (ip), vehicle: water 100 % of control | dose: 50.0 mg/kg/injection, schedule: Q01DX005 (ip), vehicle: water 101 % of control | dose: 100.0 mg/kg/injection, schedule: Q01DX005 (ip), vehicle: water 111 % of control | dose: 200.0 mg/kg/injection, schedule: Q01DX005 (ip), vehicle: water 104 % of control | dose: 400.0 mg/kg/injection, schedule: Q01DX005 (ip), vehicle: water 93 % of control
